Laboratory results published in patent publication US11692011B2, “Hepatitis B virus-derived polypeptide and anti-viral use thereof” (priority 2018, dated 2023).
No end group written: not given here.

Key:
HepG2-hNTCP-C4 cells = conditions: up to 10 μM
Experimental: (§2) In detail, HepG2, HepG2.2.15, and HepG2-hNTCP-C4 cells (expressing NTCP receptors on the cell membrane) were plated in a 96 microplate (1×10^4 cells/well), and incubated for 5 days with increasing concentrations of ETV (30 nM) and Poly6. For an MTS assay, a cell-titer 96 aqueous one solution was directly added to each well, and the plate was incubated for 3 hr. The plate was read at 490 nm, and each analysis was repeated in triplicate.

MT-4 cells = assay: Cytotoxicity assay (MTT) in MT-4 cells; conditions: up to 25 μM, 5 days
Experimental: Cell viability against the treated reagents was assessed by an MTT assay.
In detail, MT-4 cells were prepared at a density of 1×10^4 cells, and incubated with varying concentrations of Poly6 for 5 days. Cytotoxicity was determined using an MTT assay kit (Promega).

HepG2 cells = assay: Cell viability (MTS assay), HepG2; type: cell-based, human; conditions: up to 10 μM
Experimental: as §2

HepG2.2.15 cells = conditions: up to 10 μM
Experimental: as §2

IFN-I = IFN-I related mRNA levels in HepG2-2.15 cells; type: cell-based, human; conditions: compared with PBS group
Source text: IFN-I is induced by host cells to regulate viral infection (Stetson & Medzhitov, 2006). Therefore, to examine the effect of Poly6 on IFN-I production in HepG2-2.15 cells and mouse liver, mRNA levels of IFN-β, RIG-I, and ISG15 were examined.
In addition, to measure IFN levels by indirectly using a luciferase reporter gene for IFN-I bioassay and neutralization analysis, hMH55-293-ISRE cells was used, into which interferon sensitive response element (ISRE) associated with the luciferase reporter gene was inserted at the 3′-end using 5 μg of puromycin (Sigma Aldrich). After collecting supernatants from cells treated with each reagent for 24 hr or 48 hr, the supernatants were added to hMH55-293-ISRE cells for 6 hr. After incubation, cells were washed with PBS, and lysed with a reporter lysis buffer (E1500, Promega) at room temperature for 30 min. A luciferase assay reagent (E1500, Promega) was added and luminescence was measured using a TECAN m200 reader (TECAN).
(§1) Through the combination treatment of entecavir, which is currently used as an HBV anti-viral agent having a mechanism whereby activity of HBV polymerase in the nucleus is inhibited and converted to a phosphorylated form, and Poly6, which was confirmed to increase IFN-I, its anti-HBV effect and synergistic effect of IFN-I increase were examined. HepG2-2.15 cells were incubated at a density of 5×10^5 cells/well on a 6-well culture plate for 24 hr, and treated with PBS, ETV, or Poly6 alone or in combination of two substances. After incubating the cells for 48 hr, supernatants were collected, and subjected to ELISA, qPCR, and LDH assay.
Meanwhile, to examine a synergistic effect of the combination treatment of two substances with respect to the increase level of IFN-I, mRNAs of single treatment groups and combination treatment groups were extracted, and IFN-α, IFN-β, and TNF-α expression levels were observed. […] In addition, IFN levels were indirectly measured using a luciferase reporter gene of hMH55-293-ISRE cell.

HBV [1] = assay: Combination treatment of entecavir and Poly6 in HepG2-2.15 cells (ELISA, qPCR); type: cell-based; conditions: HepG2-2.15, 48 hr
Experimental: as §1

HBV [2] = assay: Anti-HBV effect in HepG2.2.15 or pHBV-1.2x-WT transfected HepG2 cells (HBsAg/HBeAg ELISA, Q-PCR, Southern blot); type: cell-based; conditions: for e antigen / s antigen: treated for 48 hr
Experimental: In this Experimental Example, HBV polymerase-derived peptides having anti-HBV effects were identified, and cell viability upon treatment thereof was analyzed. […] Then, quantitative PCR and ELISA were performed to examine virion replication and HBV surface antigen (HBsAg).
Chronic HBV infection is known to cause severe liver diseases such as cirrhosis and hepatocellular carcinoma, unlike acute infection. Therefore, it is important to develop anti-HBV drugs that overcome chronic infections. However, since the HBV genome is integrated into the host chromosome, the complete removal of the virus from human liver and serum remains a difficult problem. Therefore, in this Experimental Example, to evaluate the anti-viral effect of Poly6, HepG2.2.15 permanent cell line that continuously expresses HBV was treated with Poly6. Further, HepG2 cells were seeded in a 6-well plate, and then transiently transfected with pHBV-1.2×-WT. […] To measure secreted HBsAg and HBeAg in culture supernatants, HBsAg (BIOKIT) and HBeAg (AccuDiag) ELISA were performed according to experimental methods provided. For detection of 8-hydroxy-2′-deoxyguanosine (8-OHdG) activity, an 8-OHdG assay kit (OxiSelect Oxidative DNA Damage ELISA kit, Cell Biolabs) and ELISA were performed according to the manufacturer's protocol.
To measure extracellular virion secretion, Southern blot analysis was performed. In detail, before ultra-centrifugation at 4° C. and 24,000 rpm for 3 hr, cell debris was removed, and virions were precipitated from the supernatant using 8% PEG6000 (Sigma) on ice for 1 hr. Pellets were harvested with PBS, and HBV DNA was collected using a QIAamp DNA mini kit (QIAGEN) according to the manufacturers instructions. Viral DNA was measured using quantitative real-time PCR (Q-PCR). PCR amplification was performed using a QPCR primer set targeting a small surface gene, which is designed to amplify an a101-bp product (Table 2). Q-PCR was performed using a commercial SensiFAST SYBR Lo-ROX kit (BIOLINE) and an HBV Genesig standard kit (Primer design) to calibrate a viral load. In addition, to detect extracellular HBV DNA, supernatants were collected and HBV particles were precipitated using […] (Sigma) as described above. Virus pellets were collected from PBS and DNA was extracted with a lysis buffer (0.25% SDS, 250 mM Tris-HCl, pH 7.4 and 250 mM EDTA). Purified HBV DNA was separated on a 1% agarose gel, transferred to a nylon membrane (Hybond N+; Amersham) by Southern blotting, and hybridized with a 32P-labeled wild-type, full length HBV DNA probe. Analysis was performed using a random primer DNA labeling kit (TaKaRa). Autoradiography was performed and analyzed using a BAS 2500 image analyzer (Fuji Photo Film).

[3] = test system: mitochondrial reactive oxygen species (mtROS); assay: Mitochondrial reactive oxygen species (MitoSox, flow cytometry) in HepG2 cells; type: cell-based, human; conditions: for production of reactive oxygen species (mtROS) by mitochondrial stress: HepG2 cells, 2 hr to 24 hr, compared with PBS, rotenone 0.5 μM
Experimental: After culturing the cells for an appropriate time, the cells were incubated with 5 μM of MitoSox (Molecular probes) at 37° C. for 30 min. For flow cytometry, cell pellets were re-suspended in FACS buffer (1% FBS and 1 mM EDTA in PBS) and fixed with 4% paraformaldehyde. To prevent mitochondrial dysfunction, 10 μM of MitoTempo (SigmaAldrich) was pretreated for 12 hr, and 0.5 μM of rotenone (SigmaAldrich) reagent was used as a positive control for ROS induction through mitochondrial stress.

HIV-1 [4] = conditions: 10 μM, 2 days, HIV-1-infected MT-4 cells
Experimental: To evaluate anti-HIV-1 effects of the three polypeptides, cell-based anti-viral effects were analyzed. MT-4 cells (4×10^5 cells) were infected with HIV-1 (4×10^5 CCID50) for 1 hour. The MT-4 cells were obtained from NIH/AIDS Research and Reference Reagent Program. 293FT cells were transfected for 48 hr with HIV-1 using a pBR_HIV-1_M_NL4-3_IRES_eGFP vector (DS441) which co-expresses Nef and enhanced green fluorescence protein (eGFP) from a single bicistronic RNA, and Lipofectamine 2000 reagent (Life Technologies). A supernatant containing a viral precursor HIV-1 was harvested, and the viral titer was determined using p24 ELISA (ABL). For amplification of infectious HIV-1, MT-4 cells were infected with the viral precursor HIV-1 at a multiplicity of infection (MOI) of 0.5 for 72 hr. […]
In this regard, DMSO and AZT were purchased from Sigma-Aldrich. After 2 days of incubation, GFP images were obtained using a fluorescence microscope. The relative GFP intensity was determined using an ImageJ software program (National Institutes of Health) in pixels per area. […] Cell viability against the treated reagents was assessed by an MTT assay.
In detail, MT-4 cells were prepared at a density of 1×10^4 cells, and incubated with varying concentrations of Poly6 for 5 days. Cytotoxicity was determined using an MTT assay kit (Promega). […]

HIV-1 [5] = conditions: HIV-1-infected MT-4 cells, 5 days, dose-dependent manner
Experimental: In detail, MT-4 cells were prepared at a density of 1×10^4 cells, and incubated with varying concentrations of Poly6 for 5 days. Cytotoxicity was determined using an MTT assay kit (Promega). To analyze the anti-cytotoxic effect of Poly6 from cell death caused by cytotoxicity due to HIV-infection, MT-4 cells (1×10^4 cells) were infected with HIV-1 (1×10^4 CCID50), incubated for five days, and then subjected to cell viability assays. In addition, to determine HIV-1 titers in the supernatant, p24 ELISA was performed. […] Similar to AZT, cytopathic inhibitory effects of Poly6 on HIV-1-infected MT-4 cells were analyzed.

[6] = compared with PBS (combination vs each single treatment)

Molecule: GRLVFQ [Poly6, GRLVFQ]
- cytotoxic activity / cell viability, HepG2-hNTCP-C4 (HepG2-hNTCP-C4 cells): did not exert significant cytotoxic activity
- cytotoxic activity against MT-4 cells (MTT) (MT-4 cells): did not exert significant cytotoxic activity
- cytotoxic activity / cell viability, HepG2 (HepG2 cells): did not exert significant cytotoxic activity
- cytotoxic activity / cell viability, HepG2.2.15 (HepG2.2.15 cells): did not exert significant cytotoxic activity

Molecule: C=C1[C@H](CO)[C@@H](O)C[C@@H]1n1cnc2c(=O)[nH]c(N)nc21 [ETV, entecavir]
- mRNA level of IFN-β (IFN-I): no statistical significance
- mRNA level of ISG15 (IFN-I): no statistical significance
- mRNA level of RIG-I (IFN-I): no statistical significance
- extracellular HBV DNA levels (HBV [1]; compared with PBS (combination also vs single treatment)): statistically significantly reduced
- level of extracellular e antigen (HBV [1]; [6]): no significant reduction effect
- level of extracellular s antigen (HBV [1]; [6]): no significant reduction effect
- viral replication levels (viral titers) (HBV [2]; ETV 30 nM, Poly6 10 μM, 2 days): reduced by ETV, but there was no statistical significance
- extracellular virion secretion (Southern blot) (HBV [2]; compared with PBS): clearly decreased
- production of reactive oxygen species (mtROS) by mitochondrial stress [3]: not observed

Molecule: CC1(C)CC(NC(=O)C[P+](c2ccccc2)(c2ccccc2)c2ccccc2)CC(C)(C)N1[O] [MitoTEMPO]
- mitochondrial reactive oxygen species increased by rotenone and Poly6, after antioxidant treatment ([3]; MitoTempo 10 μM pretreated 12 hr): reduced again

Molecule: GRLVF (Hepatitis B virus) [Poly5]
- virus production (HIV-1 titers by GFP imaging and p24 ELISA) (HIV-1 [4]): reduced
- e antigen (HBV [2]): reduced
- s antigen (HBV [2]): reduced

Molecule: C=C(C)[C@H]1Cc2c(ccc3c2O[C@@H]2COc4cc(OC)c(OC)cc4[C@@H]2C3=O)O1 [rotenone]
- production of reactive oxygen species (mtROS) by mitochondrial stress [3]: significantly increased

Molecule: Cc1cn([C@H]2C[C@H](N=[N+]=[N-])[C@@H](CO)O2)c(=O)[nH]c1=O [AZT, 3-azido-3-deoxythymidine]
- cell protective effect (cytopathic inhibitory effect) (HIV-1 [5]): significant cell protective effect

Molecule: GRLVFQT (Hepatitis B virus) [Poly7]
- virus production (HIV-1 titers by GFP imaging and p24 ELISA) (HIV-1 [4]): reduced
- e antigen (HBV [2]): reduced
- s antigen (HBV [2]): reduced
